# Measured values taken from patent publication US20080255244A1, “CaM Kinase II Inhibitor Improves Retinoic Acid Therapy and Inhibits the Proliferation of Myeloid Leukemia Cells” (Fred Hutchinson Cancer Research Center, priority 2007, published 2008).
# Test system: HL-60 cells
# Assay: Differentiation of HL-60 cells (Wright Giemsa morphology, Cd11b FACS)
# Type: cell-based, human
# Conditions: single agent; five days; KN62 5 μM
# Procedure: FIG. 7. KN-62 regulates the differentiation of myeloid leukemia cell lines. (A) Wright Giemsa-stained HL-60 cells either (a) uninduced or treated for five days with (b) KN62 or (c) ATRA. (d) CD11b expression in HL-60 cells after five days exposure to KN62 (5 μM) or ATRA (1 μM). (B) Wright-Giemsa stained NB4 cells treated for five days with KN-62 (5 μM) and ATRA as indicated. […] (C) Cd11b expression of NB4 cells treated for five days with the indicated concentrations of RA and/or KN-62. (D) Western blots with the indicated antibodies were performed on HL60 cell lysates following incubation with KN62 for the indicated period of time. (E) Western blots of NB4 cell lysates following a five day incubation with the indicated compounds.
# Antibodies and chemical reagents. Antibodies against RARα, βtubulin, CaMKIIα, CaMKIIβ, CaMKIIγ, CaMKIIδ, CaMKIα, as well as phosphospecific antibodies against CaMKII were all purchased from Santa Cruz Biotechnology. Antibodies against N-CoR and SMRT were from Upstate Biotechnology. CaMKIV antibody was from BD Biosciences. Anti-FLAG antibody was from Sigma while anti-HA antibody from Novachem. Quantitation of CD11b surface antigen expression was performed utilizing the fluorescent-activated cell sorter (FACS) with PE-conjugated anti-CD11b antibody from Becton Dickinson. KN-62, KN-93 and ionomycin were obtained from Calbiochem. […]
smiles,measurement,value
CN([C@@H](Cc1ccc(OS(=O)(=O)c2cccc3cnccc23)cc1)C(=O)N1CCN(c2ccccc2)CC1)S(=O)(=O)c1cccc2cnccc12 [KN-62],HL-60 differentiation (morphologic differentiation and Cd11b expression),potent inducer
